Experimental findings from EPA's ToxValDB 9.5 (doi:10.2903/j.efsa.2009.333r) are described below.

One series concerns Colinus virginianus. The settings on record: for LD50: acute, oral, mortality.
Another series concerns Aphidius rhopalosiphi. Nature of the series: LR50; higher = less toxic. Particulars: acute; duration: 48 hours; mortality.
In a further series the test system is Apis mellifera. Particulars: acute; duration: 48 hours; dermal; mortality.
Another series concerns Gasterosteus aculeatus. The settings on record: acute; duration: 96 hours; mortality.
Another series concerns Oryctolagus sp. The settings on record: developmental; development.
The next series relates to Rattus norvegicus. The settings on record: for NOAEL: clinical chemistry.
Another series relates to Homo sapiens. The settings on record: clinical; oral; M/F; clinical chemistry.
The test system of another series is Daphnia magna. The settings on record: chronic/long-term; duration: 21 days; reproduction.
The test system of a further series is Oncorhynchus mykiss. Particulars: chronic/long-term; duration: 97 days; growth.
The next series relates to Tagia sp. The settings on record: acute; duration: 14 days; mortality.

In brackets after ≈: the same amount, converted by molar mass.

For `CCOC(=O)CC(SP(=O)(OC)OC)C(=O)OCC` (stereo unspecified) [Malaoxon], the LD50 is 334 mg/kg in the series with Colinus virginianus (diet) and 43 mg/kg in the series with Colinus virginianus.

Usually NOAEL stands for the highest dose or exposure tested at which no adverse effect was seen. As to `CCOC(=O)CC(SP(=S)(OC)OC)C(=O)OCC` (stereo unspecified) [Malathion], the LR50 in the series with Aphidius rhopalosiphi was found to be 0.0612 g/ha. For the same molecule, the LD50 was 0.16 µg/piece in the series on Apis mellifera; 1780 mg/kg in the series with Rattus norvegicus (acute, oral, F, mortality); 554 mg/kg-day in the series on Colinus virginianus (diet); 359 mg/kg in the series on Colinus virginianus. In addition, the values for the LC50 in the series with Gasterosteus aculeatus and in the series on Tagia sp. were 0.022 µg/mL (≈ 0.0666 µM) and 613 mg/kg, respectively. Besides, the NOAEL with Oryctolagus sp. was 25 mg/kg-day; in the series on Rattus norvegicus (chronic, duration: 2 years), 29 mg/kg-day; in the series with Rattus norvegicus (subchronic, duration: 90 days, oral) it was 34.4 mg/kg-day; in the series on Homo sapiens, over 15 mg/kg-day. The NOEC is 13.5 mg/kg-day in the series on Colinus virginianus (reproduction developmental), 6e-05 mg/L in the series with Daphnia magna and 0.021 mg/L with Oncorhynchus mykiss.
